Earlier results as cited in EP3463364B1, “PYRAZINE DERIVATIVES FOR USE IN THE TREATMENT OF DISEASES ASSOCIATED WITH CELL CYCLE DYSREGULATION” (University of Patras, priority 2016, dated 2017).

Biological target: T1, Geminin-Cdtl interaction (Homo sapiens, UniProt Q9H211)
T1 sequence (Q9H211 1-546): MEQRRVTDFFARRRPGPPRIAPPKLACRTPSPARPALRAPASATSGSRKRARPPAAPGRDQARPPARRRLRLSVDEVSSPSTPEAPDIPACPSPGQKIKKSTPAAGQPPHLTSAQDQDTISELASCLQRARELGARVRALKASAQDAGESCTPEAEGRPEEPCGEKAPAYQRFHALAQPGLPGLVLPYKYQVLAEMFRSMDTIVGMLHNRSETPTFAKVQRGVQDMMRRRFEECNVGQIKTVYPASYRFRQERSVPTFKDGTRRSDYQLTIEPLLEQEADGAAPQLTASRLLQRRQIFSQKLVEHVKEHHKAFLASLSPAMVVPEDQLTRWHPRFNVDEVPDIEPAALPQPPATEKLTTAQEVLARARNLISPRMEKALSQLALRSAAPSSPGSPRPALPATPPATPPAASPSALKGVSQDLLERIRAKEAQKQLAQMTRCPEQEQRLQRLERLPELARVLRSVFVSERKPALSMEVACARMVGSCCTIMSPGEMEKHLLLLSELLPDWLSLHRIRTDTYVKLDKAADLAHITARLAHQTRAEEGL
Conditions: in vitro, through binding to the Cdtl licensing factor; literature; cited from earlier work

Row | SMILES | inhibition of the Geminin-Cdtl interaction
1 | CCCCCCCC/C=C\CCCCCCCC(=O)O [oleic acid (C18:1), oleic acid] | inhibit the interaction of the two proteins in vitro
2 | COC1=C(OC)C(=O)C(C/C=C(\C)CC/C=C(\C)CC/C=C(\C)CC/C=C(\C)CC/C=C(\C)CC/C=C(\C)CC/C=C(\C)CC/C=C(\C)CC/C=C(\C)CCC=C(C)C)=C(C)C1=O [coenzyme Q10] | inhibit the interaction of the two proteins in vitro
